Marks after values point to notes of the source that are not given here.
Columns and labels:
[1] = target: T1, E-coli GGT (Escherichia coli, UniProt P18956); test: Second-order rate constant kon of E-coli GGT inactivation (continuous or discontinuous assay); format: biochemical, Escherichia coli K-12; details: for kon E-coli GGT: second-order rate constant for enzyme inactivation, pH 5.5, 25° C.
T1 construct: was used as a purified enzyme of E-coli GGT; made in house
T1 sequence (P18956 26-390 limits assumed): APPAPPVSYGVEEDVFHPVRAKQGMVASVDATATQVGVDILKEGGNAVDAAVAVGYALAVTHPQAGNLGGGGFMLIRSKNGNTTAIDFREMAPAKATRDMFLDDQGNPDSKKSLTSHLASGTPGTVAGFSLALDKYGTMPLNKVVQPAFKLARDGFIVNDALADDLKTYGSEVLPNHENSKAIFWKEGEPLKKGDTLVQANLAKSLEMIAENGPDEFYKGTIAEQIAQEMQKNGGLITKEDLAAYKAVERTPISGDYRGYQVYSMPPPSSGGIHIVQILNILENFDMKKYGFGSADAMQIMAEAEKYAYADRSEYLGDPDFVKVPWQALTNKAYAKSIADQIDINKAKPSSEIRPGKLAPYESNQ
T1 sequence (P18956 391-580 limits assumed): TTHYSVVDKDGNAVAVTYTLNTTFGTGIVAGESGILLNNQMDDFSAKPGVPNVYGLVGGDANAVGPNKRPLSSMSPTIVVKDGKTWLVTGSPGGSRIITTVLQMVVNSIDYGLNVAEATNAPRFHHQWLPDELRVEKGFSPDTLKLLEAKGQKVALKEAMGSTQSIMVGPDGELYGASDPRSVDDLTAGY
Excerpt: (§1) Purified enzyme of E-coli GGT and crude enzyme of human GGT were employed as GGT samples for an inhibition experiment. The enzyme whose physicochemical properties are described in the Document (Hideyuki Suzuki, Hidehiko Kumagai, Tatsurokukro Tochikura “gamma-Glutamyltranspeptidase from Escherichia coli K-12: Purification and Properties” Journal of Bacteriology, December 1986, Vol. 168, No. 3, p. 1325-1331) was used as a purified enzyme of E-coli GGT. Enzyme [HC-GTP (product number), 603AA (lot number)] manufactured by Asahi Kasei Co., Ltd. was used as a crude enzyme of human GGT. The crude enzyme of human GGT contained a large amount of bovine serum albumin (BSA) to stabilize the enzyme, and the GGT concentration was 1% or lower.
In the hydrolytic assay of E. coli GGT, 10 μL of a […] enzyme solution was added to a 100 mM succinic acid-sodium hydroxide buffer solution (pH 5.5) in a total volume of 1 mL containing 100 μL of 2 μM substrate aqueous solution. The product, 7-amino-4-methylcoumarin (AMC), released along with the enzyme reaction was traced continuously at 25° C. using a fluorospectrophotometer F-2000 manufactured by Hitachi Ltd. (excitation wavelength: 350 nm, emission wavelength: 440 nm). The AMC concentration was separately measured by forming a calibration curve showing the relation of the fluorescence intensity (F) and the concentration (C) using standard solutions and was calculated from the relational expression (1) of the fluorescence intensity alteration (ΔF) and concentration alteration (ΔC).
(§2) Next, a second-order rate constant for enzyme inactivation kon was measured by either a continuous assay or a discontinuous assay. Both of the continuous and discontinuous assay for measuring inhibitory activity to GGT were carried out under a pseudo-first-order reaction condition.
(§3) In the continuous assay, while the temperature was kept at 25° C., the 100 mM succinic acid-sodium hydroxide buffer solutions (pH 5.5) containing an inhibitor in various concentrations and the substrate were preincubated for equilibrium. Herein, 0.2 μM of the substrate was used for the case of E-coli GGT and 0.4 μM of the substrate was used for the case of human GGT. Thereafter, the enzyme solution of the E-coli GGT was added in a manner that the final concentration became 0.04 nM and also the human GGT crude enzyme solution was added in a manner that the final concentration became 5 μg/mL. Accordingly, the reaction was started and the release of AMC (increase of the fluorescence intensity) was continuously traced for 10 minutes.
(§4) The fluorescence intensity data obtained from the respective curves was applied to the following pseudo-first-order rate equation (2) and the observed pseudo-first-order rate constant for enzyme inactivation (kobs) was calculated by nonlinear regression analysis [Stein, R. L. et al. Biochemistry 26, 2682-2689 (1987)].
(§5) [Equation 2] [P]=[P]∞[1−exp(−kobst)] (2)
(§6) When the kobs was plotted against to the inhibitor concentration ([I]), a linear relation was obtained until the maximum extent of the experimentally possible inhibitor concentration. Therefore, the second-order rate constant for enzyme inactivation kon was calculated using the following equation (3) deduced from the kinetic mechanism.
(§7) [drawing 37] [Equation 3] kobs=kon[I]/(1+[S]/Km) (3)
(§8) Herein, S denotes 7-(γ-L-glutamylamino)-4-methylcoumarin. The substrate concentration [S] for E-coli GGT is 0.2 μM and the Km value is 0.2 μM. […] The kinetic data was obtained by nonlinear regression analysis using Kaleida graph, a program produced by Synergy Software.
Further, in the discontinuous assay, an inhibitor in various concentrations was dissolved in 100 mM succinic acid-sodium hydroxide buffer solution (pH 5.5) and the enzyme solution was added to the resulting buffer solutions. […]

[2] = target: T2, human GGT (Homo sapiens, UniProt P19440); test: Second-order rate constant kon of human GGT inactivation (continuous or discontinuous assay); format: biochemical; details: for kon Human GGT: second-order rate constant for enzyme inactivation, pH 5.5, 25° C.; for plot of log kon (human GGT) against pKa of aryl group, FIG. 4: position relative to the straight line
T2 construct: purchased Asahi Kasei Co., Ltd. HC-GTP (lot 603AA)
T2 sequence (P19440 1-380 limits assumed): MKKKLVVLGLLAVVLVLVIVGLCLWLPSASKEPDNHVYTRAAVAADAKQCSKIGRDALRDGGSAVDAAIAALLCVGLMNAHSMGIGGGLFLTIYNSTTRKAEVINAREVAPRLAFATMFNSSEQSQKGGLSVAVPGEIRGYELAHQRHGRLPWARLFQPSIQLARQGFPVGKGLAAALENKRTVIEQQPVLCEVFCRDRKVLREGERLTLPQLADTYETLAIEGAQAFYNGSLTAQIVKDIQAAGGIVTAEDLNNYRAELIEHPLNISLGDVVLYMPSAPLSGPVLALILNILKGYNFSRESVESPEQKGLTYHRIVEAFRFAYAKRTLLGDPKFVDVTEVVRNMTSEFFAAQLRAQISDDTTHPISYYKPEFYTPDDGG
T2 sequence (P19440 381-569 limits assumed): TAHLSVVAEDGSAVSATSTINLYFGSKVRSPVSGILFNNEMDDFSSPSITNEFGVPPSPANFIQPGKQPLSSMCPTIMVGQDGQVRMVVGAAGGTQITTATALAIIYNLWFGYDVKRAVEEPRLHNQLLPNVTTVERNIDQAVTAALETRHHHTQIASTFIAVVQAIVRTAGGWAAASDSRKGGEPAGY
Excerpt: as §1
In the hydrolytic assay of human GGT, the measurement was carried out in the same manner as that in the hydrolytic assay of E-coli GGT, except that the substrate concentration was changed to […] and therefore, the explanation of the common portions was omitted.
as §2, §3, §4, §5, §6, §7, §8
Further, in the discontinuous assay, an inhibitor in various concentrations was dissolved in 100 mM succinic acid-sodium hydroxide buffer solution (pH 5.5) and the enzyme solution was added to the resulting buffer solutions. Herein, in the case of E-coli GGT, the enzyme solution was added in a manner that the final concentration became 0.4 nM and also the human GGT crude enzyme solution was added in a manner that the final concentration became 0.5 mg/mL. Accordingly, the reaction of the inhibitor and each GGT was conducted at 25° C. An aliquot (10 μL) of each of the reaction solutions were sampled at every specified time to measure the remaining enzyme activity by the above-mentioned enzyme activation method. The remaining enzyme activity at every time was analyzed by nonlinear regression using the pseudo-first-order rate equation (4) of enzyme inactivation to calculate the value of kobs.
[Equation 4] αt/α0=exp(−kobst) (4) […]

[3] = Chemical stability: hydrolysis ratio after storage in water at room temperature; format: physicochemical
Description: Herein, the hydrolysis ratios of the reactive compounds of Examples 1 to 11 were measured after the respective compounds were stored in water at room temperature. In this connection, the compounds other than the compound of Example 10 were stored in water for 12 hours and the compound of Example 10 was stored in water for 112 hours.

[4] = stored in water at room temperature for 12 hours

| Structure (SMILES) | kon E-coli GGT [1] | kon Human GGT [2] | Hydrolysis ratio (%) [3, 4] | mode of inhibition of E-coli GGT (activity plot, FIG. 1) ([1]; AMC fluorescence against time) | mode of inhibition of human GGT (activity plot, FIG. 2) ([2]; AMC fluorescence against time) | plot of log kon (human GGT) against pKa of aryl group, FIG. 4 [2] | Hydrolysis ratio (%) ([3]; stored in water at room temperature for 112 hours) |
| --- | --- | --- | --- | --- | --- | --- | --- |
| N[C@H](C(=O)O)[C@@H]1CC(Cl)=NO1 [Comparative Example 1, (aS, 5S)-acivicin, reference compound] | 4210 ± 10 M^−1S^−1 | 0.40 ± 0.02 M^−1S^−1 | – | – | – | – | – |
| COP(=O)(CCC(N)C(=O)O)Oc1ccc(C)cc1 (stereo not shown) [Example 1, 2-amino-4-[methyl(4-methylphenyl)phosphono]butanoic Acid] | 23 M^−1S^−1 | 0.24 M^−1S^−1 | 0% | – | – | – | – |
| COc1ccc(OP(=O)(CCC(N)C(=O)O)OC)cc1 (stereo not shown) [Example 2, 2-amino-4-[(4-methoxyphenyl)(methyl)phosphono]butanoic Acid] | 19.5 M^−1S^−1 | 0.16 M^−1S^−1 | 0% | – | – | – | – |
| COP(=O)(CCC(N)C(=O)O)Oc1ccccc1 (stereo not shown) [Example 3, 2-amino-4-[methyl(phenyl)phosphono]butanoic Acid] | 115 M^−1S^−1 | 0.40 M^−1S^−1 | 0% | – | – | – | – |
| COP(=O)(CCC(N)C(=O)O)Oc1ccc(Cl)cc1 (stereo not shown) [Example 4, 2-amino-4-[(4-chlorophenyl)(methyl)phosphono]butanoic Acid] | 607 M^−1S^−1 | 5.0 M^−1S^−1 | 0% | – | – | – | – |
| COP(=O)(CCC(N)C(=O)O)Oc1ccc(C(F)(F)F)cc1 (stereo not shown) [Example 5, 2-amino-4-[methyl(4-trifluoromethylphenyl)phosphono]butanoic acid] | 2800 M^−1S^−1 | 11.5 M^−1S^−1 | 0% | – | – | – | – |
| COP(=O)(CCC(N)C(=O)O)Oc1ccc(C#N)cc1 (stereo not shown) [Example 6, 2-amino-4-[(4-cyanophenyl)(methyl)phosphono]butanoic Acid] | 12000 M^−1S^−1 | 45.9 M^−1S^−1 | 12.3% | – | – | – | – |
| COP(=O)(CCC(N)C(=O)O)Oc1ccc2c(C)cc(=O)oc2c1 (stereo not shown) [Example 8, 2-amino-4-[methyl(4-methylumbelliferyl)phosphono]butanoic Acid] | 15700 M^−1S^−1 | 2400 M^−1S^−1 | 6.0% | irreversibly inactivate | irreversibly inactivate | deviate upward | – |
| CCCCOP(=O)(CCC(N)C(=O)O)Oc1ccccc1 (stereo not shown) [Example 9, 2-amino-4-[butyl(phenyl)phosphono]butanoic Acid] | 9.0 M^−1S^−1 | 0.023 M^−1S^−1 | 0% | – | – | – | – |
| CCC(OP(=O)(CCC(N)C(=O)O)Oc1ccccc1)C(=O)NCC(=O)O (stereo not shown) [Example 10, 2-amino-4-[1-[N-(carboxymethyl)carbamoyl]propyl(phenyl)phosphono]butanoic acid] | 80.9 M^−1S^−1 | 74.5 M^−1S^−1 | – | – | – | deviate upward | 37.5* % |
| COP(=O)(CCC(N)C(=O)O)Oc1ccc(CC(=O)O)cc1 (stereo not shown) [Example 12, 2-amino-4-{[4-(carboxymethyl)phenyl](methyl)phosphono}butanoic Acid] | 200 M^−1S^−1 | 0.33 M^−1S^−1 | – | – | – | – | – |
| COP(=O)(CCC(N)C(=O)O)Oc1ccc(C(=O)O)cc1 (stereo not shown) [Example 13, 2-amino-4-[4-carboxyphenyl(methyl)phosphono]butanoic Acid] | 3200 M^−1S^−1 | 5.2 M^−1S^−1 | – | – | – | – | – |
| COP(=O)(CCC(N)C(=O)O)Oc1cccc([N+](=O)[O-])c1 (stereo not shown) [Example 14, 2-amino-4-[methyl(3-nitrophenyl)phosphono]butanoic Acid] | 5100 M^−1S^−1 | 49 M^−1S^−1 | – | – | – | – | – |
| COP(=O)(CCC(N)C(=O)O)Oc1cccc(C(=O)O)c1 (stereo not shown) [Example 15, 2-amino-4-[3-carboxyphenyl(methyl)phosphono]butanoic Acid] | 450 M^−1S^−1 | 1.63 M^−1S^−1 | – | – | – | – | – |
| COP(=O)(CCC(N)C(=O)O)Oc1cccc(CCC(=O)O)c1 (stereo not shown) [Example 16, 2-amino-4-{[3-(2-carboxyethyl)phenyl](methyl)phosphono}butanoic Acid] | 71 M^−1S^−1 | 7.67 M^−1S^−1 | – | – | – | deviate upward | – |
| NC(CCP(=O)(Oc1ccccc1)Oc1ccccc1)C(=O)O (stereo not shown) [Example 17, 2-amino-4-(diphenylphosphono)butanoic Acid] | 28 M^−1S^−1 | 0.41 M^−1S^−1 | – | – | – | – | – |
